Holding throughout (assay): NCI anticancer screen, dose series, 48 h
For assay [1], the system named is SW-620.
Assay [2] relates to COLO 205.
In assay [3] the test system is HT-29.
In assay [4] the test system is IGROV-1.
Assay [5] concerns HCT-15.
Assay [6] deals with NCI/ADR-RES.
Assay [7] has as its system K562.
Assay [8] concerns HL-60.
Assay [9] deals with KM12.
The subject of assay [10] is SK-MEL-5.
Assay [11] relates to SF-268.
For assay [12], the system named is HOP-62.
Assay [13] has as its system NCI-H23.
The test system of assay [14] is A549.
The subject of assay [15] is SF-295.
Assay [16] has as its system TK-10.
Assay [17] concerns RPMI-8226.
In assay [18] the test system is DU-145.
Assay [19] has as its system MDA-MB-231.
Assay [20] concerns PC-3.

The results in this text go back to ChEMBL document CHEMBL1201862, “PubChem BioAssay data set” (2004).

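How tested: cells in 96-well plates exposed to compound for 48 hours at five concentrations. GI50: concentration for 50% inhibition of growth.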 Activity calls are given as the source filed them. Cut-off read from the data, not from the text of the source: active = GI50 up to about 1.1 µM and inactive = higher.

Consider `COc1ccc2c(c1)OCCc1cn[nH]c1-2`, for which the GI50 in assay [1] is 36.3 µM (inactive); in [2], 29.3 µM (inactive); in [3], 34.8 µM (inactive); in assay [4], 23.4 µM (inactive); in assay [5], 35.2 µM; in [6], 35.3 µM (inactive). In addition, the GI50 was 41.3 µM (inactive) in assay [7]; 13.3 µM (inactive) in assay [8]; 38.9 µM (inactive) in assay [9]; 29.2 µM (inactive) in [10]; 59.4 µM (inactive) in assay [11]; 56.6 µM (inactive) in assay [12]. Further, the GI50 is 38.3 µM (inactive) in assay [13], 53.8 µM (inactive) in [14] and 54.2 µM (inactive) in assay [15].
Take `CCC(=O)NC(Nc1ccc(O)cc1)(C(F)(F)F)C(F)(F)F`: the GI50 in assay [3] is > 100 µM (inactive); in assay [5], 29.9 µM; in [7], 33.1 µM (inactive); in [16] it was > 100 µM (inactive); in [8], 18.5 µM (inactive); in assay [9], 62.7 µM (inactive). Moreover, the GI50 is 33.3 µM (inactive) in assay [17]; > 100 µM (inactive) in assay [11]; > 100 µM (inactive) in [18]; > 100 µM (inactive) in assay [12]; 67.8 µM (inactive) in assay [13]; 73.8 µM (inactive) in assay [19].
Consider `CC(=O)NC1(NC(C)=O)C2CC(C1Cc1ccccc1)C(C)(C)C2C` (stereo not drawn), for which the GI50 in assay [1], in assay [2], in assay [3], in assay [4], in assay [7] and in assay [16] was > 100 µM (inactive) in each case. Also, the GI50 in assay [20], in assay [8], in [9], in assay [10], in [11] and in assay [18] was > 100 µM (inactive) throughout. Further, the GI50 in assay [12], in [13], in assay [14], in [15] and in assay [19] was > 100 µM (inactive) each time.
As for `O=C(/C=C/c1ccc(O)c(O)c1)NCCc1ccc(-c2ccccc2)cc1`, the GI50 in [1] is > 100 µM (inactive); in assay [2], 78.3 µM (inactive); in assay [3], 63.5 µM (inactive); in assay [5], more than 100 µM; in assay [6], 64.7 µM (inactive); in [7] it was 27.2 µM (inactive). In addition, the GI50 was 19.1 µM (inactive) in assay [16]; > 100 µM (inactive) in [20]; 28.3 µM (inactive) in [8]; 30.8 µM (inactive) in assay [9]; 45.8 µM (inactive) in assay [10]; 39.4 µM (inactive) in [17]. For the same compound, the GI50 was 31.8 µM (inactive) in assay [11]; > 100 µM (inactive) in assay [18]; 31.3 µM (inactive) in [12]; 68.4 µM (inactive) in assay [13]; > 100 µM (inactive) in [14]; 40.8 µM (inactive) in [15].
For the compound `O=C1c2ccccc2C(=O)N1Cc1ccccc1-c1c2nc(c(-c3ccccc3CN3C(=O)c4ccccc4C3=O)c3ccc([nH]3)c(-c3ccccc3CN3C(=O)c4ccccc4C3=O)c3nc(c(-c4ccccc4CN4C(=O)c5ccccc5C4=O)c4ccc1[nH]4)C=C3)C=C2`, the GI50 was > 100 µM (inactive) in assay [1]; 74 µM (inactive) in assay [2]; > 100 µM (inactive) in assay [3]; > 100 µM (inactive) in assay [4]; more than 100 µM in assay [5]; > 100 µM (inactive) in [7]. In addition, the GI50 in [16] is > 100 µM (inactive); in assay [8], > 100 µM (inactive); in assay [9], > 100 µM (inactive); in assay [10], 52.7 µM (inactive); in [17], > 100 µM (inactive); in assay [11] it was > 100 µM (inactive). Moreover, the GI50 was > 100 µM (inactive) in assay [12], > 100 µM (inactive) in assay [13], > 100 µM (inactive) in assay [14] and 72.1 µM (inactive) in assay [15].
For `Cc1cc(NS(=O)(=O)c2ccc(NC(=O)COC(=O)c3cccc4c(=O)c5ccccc5[nH]c34)cc2)no1`, the GI50 in assay [1] was > 100 µM (inactive); in assay [2] it was > 100 µM (inactive); in [3], > 100 µM (inactive); in assay [4], > 100 µM (inactive); in assay [5], more than 100 µM; in [7] it was > 100 µM (inactive). Further, the GI50 in assay [16], in assay [8], in assay [9], in assay [10], in assay [17] and in assay [11] was > 100 µM (inactive) throughout. Besides, the GI50 in [12], in [13], in assay [14] and in assay [15] was > 100 µM (inactive) throughout.
With `CC(=O)CCC#Cc1ccccc1C(=O)C(C)=[N+]=[N-]`, the GI50 in assay [1] is 52.7 µM (inactive); in [2], 14.9 µM (inactive); in assay [3], 44.8 µM (inactive); in assay [4], 30 µM (inactive); in assay [5], 48.8 µM; in [7], 20.8 µM (inactive). The GI50 in assay [16] was > 100 µM (inactive); in assay [8], 13.2 µM (inactive); in [9] it was 45 µM (inactive); in [10], 15.4 µM (inactive); in assay [17], 17.4 µM (inactive); in assay [11] it was 18.1 µM (inactive). Moreover, the GI50 was 71.3 µM (inactive) in [12], 36.1 µM (inactive) in assay [13], 41 µM (inactive) in [14] and 45 µM (inactive) in assay [15].
In the case of `COC(=O)C(Cc1nc2ccc(Cl)cc2nc1O)/C(=N/O)C(=O)Nc1cccc(Cl)c1C` (stereo not drawn), the GI50 was > 100 µM (inactive) in [1]; > 100 µM (inactive) in [2]; > 100 µM (inactive) in assay [3]; > 100 µM (inactive) in assay [4]; more than 100 µM in assay [5]; > 100 µM (inactive) in assay [7]. In addition, the GI50 in assay [16], in assay [8], in assay [9], in assay [10], in assay [17] and in [11] was > 100 µM (inactive) each time. Moreover, the GI50 in assay [12], in [13], in assay [14] and in assay [15] was > 100 µM (inactive) each time.
For the compound `Cc1cccc2c1[nH]c1[nH]c(=O)[nH]c(=O)c12`, the GI50 was > 100 µM (inactive) in assay [1]; > 100 µM (inactive) in [2]; > 100 µM (inactive) in [3]; > 100 µM (inactive) in assay [4]; more than 100 µM in [5]; > 100 µM (inactive) in assay [6]. The GI50 in [7], in [16], in assay [8], in assay [9], in [10] and in [17] was > 100 µM (inactive) in each case. For the same compound, the GI50 in assay [11], in assay [18], in assay [12], in assay [13], in [14] and in assay [15] was > 100 µM (inactive) in each case. Moreover, the GI50 in assay [19] was > 100 µM (inactive).
On to `COc1cc(C(=O)C/C(CCC(=O)Nc2ccc(Cl)cc2Cl)=N/NC(=O)C(N)=O)ccc1O`, for which the GI50 in assay [1] was > 100 µM (inactive); in assay [2], > 100 µM (inactive); in assay [3], > 100 µM (inactive); in assay [4], > 100 µM (inactive); in [5], more than 100 µM; in assay [7], 76.2 µM (inactive). Moreover, the GI50 is > 100 µM (inactive) in [16]; > 100 µM (inactive) in assay [8]; 85.7 µM (inactive) in assay [9]; > 100 µM (inactive) in assay [10]; > 100 µM (inactive) in assay [17]; > 100 µM (inactive) in assay [11]. Also, the GI50 in [12] is 79.6 µM (inactive); in assay [13] it was > 100 µM (inactive); in [14], > 100 µM (inactive); in assay [15], > 100 µM (inactive).
As to `COc1cccc(N[C@@H]2c3cc4c(cc3C(c3cc(OC)c(O)c(OC)c3)[C@H]3C(=O)OCC32)OCO4)c1` (stereo partly drawn), the GI50 was 0.891 µM (active) in assay [1]; 2.11 µM (inactive) in assay [2]; 0.973 µM (active) in [3]; 2.07 µM (inactive) in assay [4]; 0.552 µM in [5]; 0.348 µM (active) in [6]. The GI50 is 0.531 µM (active) in [7]; 0.0499 µM (active) in assay [8]; 1.65 µM (inactive) in assay [9]; 0.8 µM (active) in assay [10]; 0.186 µM (active) in [17]; 0.681 µM (active) in assay [11]. The GI50 in assay [12] is 0.191 µM (active); in assay [13], 0.587 µM (active); in assay [14], 0.0213 µM (active); in assay [15], 0.186 µM (active).
As to `COc1cc2c(c(OC)c1OC)-c1ccc(SC)c(=O)cc1[C@@H](NCc1ccc(C#N)cc1)CC2`, the GI50 in assay [1] was 0.00366 µM (active); in assay [2] it was 0.0035 µM (active); in assay [3] it was 0.00239 µM (active); in assay [4], 0.00412 µM (active); in assay [5] it was 0.00472 µM; in assay [7], 0.00383 µM (active). Besides, the GI50 in assay [16] is 0.00811 µM (active); in assay [8] it was 0.00301 µM (active); in [9], 0.00469 µM (active); in assay [10] it was 0.00365 µM (active); in [17], 0.00315 µM (active); in assay [11], 0.00612 µM (active). Moreover, the GI50 in assay [12] was 0.004 µM (active); in assay [13], 0.00274 µM (active); in [14] it was 0.00411 µM (active); in assay [15] it was 0.00369 µM (active).
